According to paper PMC9016878 (ACS Omega, 2022):

Columns and labels:
[1] = target: T1, porcine pancreatic amylase (Sus scrofa, UniProt P00690); test: biochemical
T1 sequence (P00690 16-511): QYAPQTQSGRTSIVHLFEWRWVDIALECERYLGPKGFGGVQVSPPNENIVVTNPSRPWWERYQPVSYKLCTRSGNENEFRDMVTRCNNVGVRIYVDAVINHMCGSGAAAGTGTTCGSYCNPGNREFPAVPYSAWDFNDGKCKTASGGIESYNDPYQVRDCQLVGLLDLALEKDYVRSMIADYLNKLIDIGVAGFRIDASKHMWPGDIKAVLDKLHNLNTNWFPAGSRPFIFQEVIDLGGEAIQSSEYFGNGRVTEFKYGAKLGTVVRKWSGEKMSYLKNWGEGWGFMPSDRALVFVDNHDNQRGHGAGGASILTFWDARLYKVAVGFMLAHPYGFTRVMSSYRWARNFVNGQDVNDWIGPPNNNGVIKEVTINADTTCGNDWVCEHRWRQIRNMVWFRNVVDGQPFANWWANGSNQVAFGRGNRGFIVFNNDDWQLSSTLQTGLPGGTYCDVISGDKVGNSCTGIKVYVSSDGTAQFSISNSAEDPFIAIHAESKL

[2] = target: α-glucosidase from Saccharomyces cerevisiae; test: α-glucosidase inhibition; type: biochemical; settings: read-out: Inhibitory activity (IC50) on α-glucosidase; mean ± SD; pNPG substrate, pH 6.8, 37 °C
[3] = target: T2, lipase from porcine pancreas (Sus scrofa, UniProt P00591); test: pancreatic lipase inhibition; type: biochemical
T2 sequence (P00591 1-450): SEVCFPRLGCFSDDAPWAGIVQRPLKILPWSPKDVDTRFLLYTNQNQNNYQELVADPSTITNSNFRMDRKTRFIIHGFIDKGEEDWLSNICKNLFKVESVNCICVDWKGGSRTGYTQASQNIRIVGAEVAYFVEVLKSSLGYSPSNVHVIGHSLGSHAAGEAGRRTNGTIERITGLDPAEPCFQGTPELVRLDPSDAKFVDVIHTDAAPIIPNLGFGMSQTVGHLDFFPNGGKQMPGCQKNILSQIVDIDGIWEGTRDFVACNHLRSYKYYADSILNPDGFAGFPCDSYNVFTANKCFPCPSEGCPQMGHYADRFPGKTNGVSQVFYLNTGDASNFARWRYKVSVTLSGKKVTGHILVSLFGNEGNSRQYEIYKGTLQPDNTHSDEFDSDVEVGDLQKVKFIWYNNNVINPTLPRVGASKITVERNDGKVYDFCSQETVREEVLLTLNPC

| Compound | IC50 [1] | IC50 [2] | IC50 [3] |
| --- | --- | --- | --- |
| C[C@@H]1CC[C@]2(C(=O)O)CC[C@]3(C)C(=CC[C@@H]4[C@@]5(C)CC[C@H](O)C(C)(C)[C@@H]5CC[C@]43C)[C@@H]2[C@]1(C)O [compound 13, pomolic acid] | 142 ± 6.15 µM | 85.5 ± 6.87 µM | 458 ± 72.8 µM |
| C[C@@H]1CC[C@]2(C(=O)O)CC[C@]3(C)C(=CC[C@@H]4[C@@]5(C)[C@H](O)C(=O)[C@H](O)C(C)(C)[C@@H]5CC[C@]43C)[C@@H]2[C@]1(C)O [compound 7, 1-hydroxy-2-oxopomolic acid] |  | 192 ± 13.8 µM |  |
| CC[C@H](CC[C@@H](C)[C@H]1CC[C@H]2[C@@H]3CC=C4C[C@@H](O[C@@H]5O[C@H](CO)[C@@H](O)[C@H](O)[C@H]5O)CC[C@]4(C)[C@H]3CC[C@]12C)C(C)C [compound 14, β-sitosterol glucoside] | 113 ± 3.51 µM |  |  |
